The test system of one experiment is KO-52 cells. Put plainly: Proliferation assay, spheroid-like growth, KO-52 (MLL wildtype control cell line). Type of experiment: cell-based, human. Particulars: Homo sapiens, 192 h, KO-52 control cells, 8 days, confluence as measure of spheroid size; read-out: spheroid assay_OneTime KO-52 IC50. As to the method: The anti-proliferative effect of menin/MLL protein/protein interaction inhibitor test compounds was assessed in human leukemia cell lines. The cell line MOLM14 harbors a MLL translocation and expresses the MLL fusion proteins MLL-AF9, respectively, as well as the wildtype protein from the second allele. […] KO-52 was used as a control cell line containing two MLL (KMT2A) wildtype alleles in order to exclude compounds that display general cytotoxic effects.
MOLM14 cells were cultured in RPMI-1640 (Sigma Aldrich) supplemented with 10% heat-inactivated fetal bovine serum (HyClone), 2 mM L-glutamine (Sigma Aldrich) and 50 μg/ml gentamycin (Gibco). KO-52 cell lines were propagated in alpha-MEM (Sigma Aldrich) supplemented with 20% heat-inactivated fetal bovine serum (HyClone), 2 mM L-glutamine (Sigma Aldrich) and 50 μg/ml gentamycin (Gibco).
In order to assess the anti-proliferative effects, 200 MOLM14 cells, or 300 KO-52 cells were seeded in 200 μl media per well in 96-well round bottom, ultra-low attachment plates (Costar, catalogue number 7007). Cell seeding numbers were chosen based on growth curves to ensure linear growth throughout the experiment. Test compounds were added at different concentrations and the DMSO content was normalized to 0.3%. Cells were incubated for 8 days at 37° C. and 5% CO2. Spheroid like growth was measured in real-time by live-cell imaging (IncuCyteZOOM, Essenbio, 4× objective) acquiring images at day 8. Confluence (%) as a measure of spheroid size was determined using an integrated analysis tool.
In order to determine the effect of the test compounds over time, the confluence in each well as a measure of spheroid size, was calculated. Confluence of the highest dose of a reference compound was used as baseline for the LC (Low control) and the confluence of DMSO treated cells was used as 0% cytotoxicity (High Control, HC).
Absolute IC50 values were calculated as percent change in confluence as follows:
LC=Low Control: cells treated with e.g. 1 μM of the cytotoxic agent staurosporin, or e.g. cells treated with a high concentration of an alternative reference compound
GraphPad Prism (version 7.00) was used to calculate the IC50. Dose-response equation was used for the plot of % Effect vs Log 10 compound concentration with a variable slope and fixing the maximum to 100% and the minimum to 0%.

Experiment [1] deals with T1, menin/MLL (terbium chelate-labeled menin, FITC-MBM1 peptide) (Homo sapiens, UniProt O00255, T541A).
T1 construct: Menin (a.a 1-610-6xhis tag)
T1 sequence (O00255 with tags, fused parts or gaps T541A): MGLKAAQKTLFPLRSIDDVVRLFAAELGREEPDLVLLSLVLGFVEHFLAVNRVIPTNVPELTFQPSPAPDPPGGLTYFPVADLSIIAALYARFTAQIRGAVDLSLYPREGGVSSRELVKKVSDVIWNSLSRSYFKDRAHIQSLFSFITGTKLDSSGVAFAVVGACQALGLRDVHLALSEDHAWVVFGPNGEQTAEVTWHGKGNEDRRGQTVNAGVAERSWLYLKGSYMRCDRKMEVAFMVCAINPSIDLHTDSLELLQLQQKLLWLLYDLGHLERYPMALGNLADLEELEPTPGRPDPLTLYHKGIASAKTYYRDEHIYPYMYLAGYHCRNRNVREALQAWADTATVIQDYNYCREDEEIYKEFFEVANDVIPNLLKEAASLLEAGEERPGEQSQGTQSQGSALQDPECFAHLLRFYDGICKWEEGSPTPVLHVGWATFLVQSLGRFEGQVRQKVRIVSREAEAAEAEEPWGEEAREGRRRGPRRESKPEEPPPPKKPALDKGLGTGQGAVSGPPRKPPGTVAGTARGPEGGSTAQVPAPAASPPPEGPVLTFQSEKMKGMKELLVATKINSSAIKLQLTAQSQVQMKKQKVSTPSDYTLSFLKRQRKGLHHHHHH
As to the kind of experiment: Menin/MLL homogenous time-resolved fluorescence (HTRF) assay. Type of experiment: binding. The following applies: 30 min incubation. The procedure, abridged:
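Tb-cryptate menin (1-610, 6xHis) 200 pM + cmpd, 30 min RT; + FITC-MBM1 75 nM, 15 min RT. 40 mM Tris pH 7.5, 50 mM NaCl, 1 mM DTT, 0.05% Pluronic F-127, 0.5% DMSO. HTRF 520/490; 11-pt 4-fold from 10 μM; IC50 fit.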
In general terms: TR-FRET usually uses a lanthanide donor and a delayed reading to cut background.

Another experiment has as its system MOLM14 cells. Put plainly: Proliferation assay, spheroid-like growth, MOLM14 (MLL-AF9 rearranged). Type of experiment: cell-based, human. The following applies: Homo sapiens, MOLM-14, 192 h, 8 days, confluence as measure of spheroid size, read-out: spheroid assay_OneTime MOLM14 IC50. The method, boiled down: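 200 MOLM14 or 300 KO-52 cells/well, ultra-low attachment, compound dilutions, DMSO 0.3%; 8 d, 37 °C, 5% CO2. Read: live-cell imaging confluence (spheroid size) day 8. Absolute IC50, min 0%/max 100% fixed, variable slope.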

One may read the IC50 as the concentration needed to halve the response being measured. For `CC(C)[C@@H]([C@H]1C[C@@H](NC(=O)C2CC2)C1)N1CC2(CCN(c3ncnnc3Oc3ccc(F)cc3-c3cnncc3C3CC3)C2)C1` (single isomer, unassigned) [Compound 186], the IC50 with KO-52 cells is 7050 nM; in experiment [1], 5.4 nM; in the experiment with MOLM14 cells it was greater than 940 nM.
For `CC(C)[C@H]([C@H]1C[C@@H](N2CC[C@H](F)C2)C1)N1CC2(CCN(c3ncnnc3Oc3ccc(F)cc3-c3cncnc3C3CC3)C2)C1` (single isomer, unassigned) [Compound 238], in that order: 7170 nM, 0.1 nM and 2 nM.
For `CC(C)C([C@H]1C[C@@H](N2CCC3(COC3)C2)C1)N1CC2(CCN(c3ncnnc3Oc3ccc(F)cc3-c3cncnc3C3CC3)C2)C1` (stereo partly drawn) [Compound 326], in that order: 9180 nM, 0.2 nM and 32 nM.
On the same counts, the results for `CC(C)[C@@H]([C@H]1C[C@@H](N(C)C)C1)N1CC2(CCN(c3ncnnc3Oc3ccc(F)cc3-c3cccnc3C3CC3)C2)C1` (single isomer, unassigned) [Compound 90] are 540 nM, 0.1 nM and 2 nM.
For `CC(C)[C@H](C1CCN(CC2COC2)CC1)N1CC2(CCN(c3ncnnc3Oc3ccc(F)cc3-c3cncnc3C3CC3)C2)C1` (single isomer, unassigned) [Compound 5], the values for the IC50 (in the experiment on KO-52 cells; in experiment [1]; with MOLM14 cells) were 9310 nM, 0.2 nM and 120 nM, respectively.
For `CC(C)[C@H](C1CC2(C1)CN(CC1COC1)C2)N1CC2(CCN(c3ncnnc3Oc3ccc(F)cc3-c3cncnc3C3CC3)C2)C1` (single isomer, unassigned) [Compound 154], in that order: 9080 nM, 0.4 nM and 230 nM.
Consider `CC(C)[C@@H](C1CC(C)(O)C1)N1CC2(CCN(c3ncnnc3Oc3ccc(F)cc3-c3cncnc3C3CC3)C2)C1` (single isomer, unassigned) [Compound 160], for which the IC50 was greater than 15000 nM in the experiment with KO-52 cells, 23.2 nM in experiment [1] and greater than 3750 nM with MOLM14 cells.
For `CC(C)[C@H]([C@H]1C[C@@H](N2C[C@@H](O)C3(CCC3)C2)C1)N1CC2(CCN(c3ncnnc3Oc3ccc(F)cc3-c3cncnc3C3CC3)C2)C1` (single isomer, unassigned) [Compound 215], in that order: 7940 nM, 0.1 nM and 2 nM.
In the case of `CC(C)[C@H]([C@H]1C[C@@H](NC(=O)C2CC2)C1)N1CC2(CCN(c3ncnnc3Oc3ccc(F)cc3-n3ncnc3C3CC3)C2)C1` (single isomer, unassigned) [Compound 308], the IC50 was found to be 4570 nM with KO-52 cells, 0.2 nM in experiment [1] and 70 nM in the experiment on MOLM14 cells.
Regarding `CC(=O)N1CC2(C1)CN([C@H]1C[C@H]([C@@H](C(C)C)N3CC4(CCN(c5ncnnc5Oc5ccc(F)cc5-c5cncnc5C5CC5)C4)C3)C1)C2` (single isomer, unassigned) [Compound 171], the IC50 in the experiment with KO-52 cells is greater than 15000 nM; in experiment [1], 0.1 nM; with MOLM14 cells, 31 nM.
On the same counts, the results for `CC(C)C([C@H]1C[C@@H](Nc2cncnc2)C1)N1CC2(CCN(c3ncnnc3Oc3ccc(F)cc3-c3cncnc3C3CC3)C2)C1` (stereo partly drawn) [Compound 193] are greater than 15000 nM, 0.2 nM and 50 nM.
For `CC(C)[C@H](C1CCN(C[C@H]2C[C@@H](O)C2)CC1)N1CC2(CCN(c3ncnnc3Oc3ccc(F)cc3-c3cncnc3C3CC3)C2)C1` (single isomer, unassigned) [Compound 357], the 50% inhibitory concentration (IC50) in the experiment with KO-52 cells came out at 9790 nM; in experiment [1] it was 0.1 nM; in the experiment on MOLM14 cells it was 45 nM.
On the same counts, the results for `CC(=O)N1CCC12CN([C@H]1C[C@@H]([C@@H](C(C)C)N3CC4(CCN(c5ncnnc5Oc5ccc(F)cc5-c5cncnc5C5CC5)C4)C3)C1)C2` (single isomer, unassigned) [Compound 172] are 10100 nM, 0.1 nM and 22 nM.
For `COC1CCN([C@H]2C[C@@H](C(C(C)C)N3CC4(CCN(c5ncnnc5Oc5ccc(F)cc5-c5cncnc5C5CC5)C4)C3)C2)CC1` (single isomer, unassigned) [Compound 16], in that order: 1880 nM, 0.1 nM and 4 nM.
With `CC(C)[C@H]([C@H]1C[C@H](N2CCC(C)(C(=O)N(C)C)CC2)C1)N1CC2(CCN(c3ncnnc3Oc3ccc(F)cc3-c3cncnc3C3CC3)C2)C1` (single isomer, unassigned) [Compound 63], the figures for the IC50 with KO-52 cells and in the experiment with MOLM14 cells were greater than 15000 nM and 57 nM, respectively.
Turning to `Fc1ccc(Oc2nncnc2N2CCC3(C2)CN(C(C2CCN(CC4COC4)CC2)C24CC(C2)C4)C3)c(-c2nnccc2C2CC2)c1` (stereo not drawn) [Compound 340], the IC50 with KO-52 cells came to 11400 nM; with MOLM14 cells it was 170 nM.
For `CC(C)C([C@H]1C[C@@H](N2C[C@H]3COC[C@H]3C2)C1)N1CC2(CCN(c3ncnnc3Oc3ccc(F)cc3-c3cnc(C#N)nc3C3CC3)C2)C1` (stereo partly drawn) [Compound 166], in that order: 1530 nM and 3 nM.
On the same counts, the results for `CC(C)C([C@H]1C[C@H](NCC(C)(C)O)C1)N1CC2(CCN(c3ncnnc3Oc3ccc(F)cc3-c3cncnc3C3CC3)C2)C1` (stereo partly drawn) [Compound 134] are 13200 nM and 130 nM.
For `CC(C)[C@H]([C@H]1C[C@@H](NC(=O)C2CC2)C1)N1CC2(CCN(c3ncnnc3Oc3ccc(F)cc3-c3cccc(=O)n3C3CC3)C2)C1` (single isomer, unassigned) [Compound 190], in that order: 14800 nM and 76 nM.
`CC(C)[C@@H]([C@H]1C[C@@H](NC(=O)C2CC2)C1)N1CC2(CCN(c3ncnnc3Oc3ccc(F)cc3-c3cccc(=O)n3C3CC3)C2)C1` (single isomer, unassigned) [Compound 191]: the IC50 is greater than 15000 nM in the experiment on KO-52 cells and greater than 940 nM with MOLM14 cells.
With `CC(C)[C@H]([C@H]1C[C@@H](N2CC[C@](C)(O)C2)C1)N1CC2(CCN(c3ncnnc3Oc3ccc(F)cc3-c3cncnc3C3CC3)C2)C1` [Compound 12], the IC50 in the experiment on KO-52 cells is greater than 15000 nM; with MOLM14 cells, 2 nM.
Take `CC(C)C([C@H]1C[C@H](N2CC3(COC3)C2)C1)N1CC2(CCN(c3ncnnc3Oc3ccc(F)cc3-c3ncc(C#N)cc3C3CC3)C2)C1` (stereo partly drawn) [Compound 141]: the half-maximal inhibitory concentration (IC50) in the experiment with KO-52 cells amounted to 12400 nM; in the experiment with MOLM14 cells, 260 nM.
For `CC(C)C([C@H]1C[C@H](N2CCC(C)(O)CC2)C1)N1CC2(CCN(c3ncnnc3Oc3ccc(F)cc3-c3cncnc3C3CC3)C2)C1` (stereo partly drawn) [Compound 130], in that order: greater than 15000 nM and 120 nM.

The values above are taken from patent publication US20240417405A1, “Substituted Spiro Derivatives” (Janssen Pharmaceutica NV, priority 2021, published 2024).
